Molecules are shown by their SMILES. Numbers after ± are expanded uncertainties.

This series is described as follows: molar enthalpy of vaporization or sublimation. The following applies: 298.15 K; Liquid; Static calorimetry.
As to `COc1cccc(OC)n1` [2,6-dimethoxypyridine], the molar enthalpy amounted to 12.9 ± 0.239 kcal/mol. For the compound `COc1ccccn1` [2-methoxypyridine], the molar enthalpy stood at 10.8 ± 0.311 kcal/mol. On to `COc1ccncc1` [4-methoxypyridine], for which the molar enthalpy was 13.7 ± 0.311 kcal/mol.
